One data set deals with HCT-116. The data set is described as follows: Antiproliferative activity against human HCT-116 cells assessed as reduction in cell viability after 72 hrs by MTT assay. The settings on record: HCT-116, 72 h. Background: Tetrazolium assays rely on reduction of a dye to a coloured formazan, in cell work by metabolically active cells.
A further data set concerns B16. The data set is described as follows: Antiproliferative activity against mouse B16 cells assessed as reduction in cell viability after 72 hrs by MTT assay. The settings on record: B16, 72 h.
For the next data set, the system named is L02. The experiment in a line: Cytotoxicity against human L02 cells assessed as cell viability after 72 hrs by MTT assay. The settings on record: L02, 72 h.
The test system of another data set is K562. The data set is described as follows: Antiproliferative activity against human K562 cells assessed as reduction in cell viability after 72 hrs by MTT assay. The settings on record: K562, 72 h.
Another data set has as its system MCF7. The experiment in a line: Antiproliferative activity against human MCF7 cells assessed as reduction in cell viability after 72 hrs by MTT assay. The settings on record: MCF7, 72 h.
In a further data set the test system is HepG2. The data set is described as follows: Antiproliferative activity against human HepG2 cells assessed as reduction in cell viability after 72 hrs by MTT assay. The conditions noted are these: HepG2, 72 h.
A short description of data set [1]: Cytotoxicity against human PBMC cells assessed as cell viability after 72 hrs by MTT assay.
Data set [2] can be described thus: Prodrug conversion in THF/PBS buffer assessed as H2S release concentration at 0.1 mM in presence of TCEP after 20 mins by methylene blue staining based UV-Vis spectrophotometric method. The conditions noted are these: 100 µM. In kind it is ADME.

Usually IC50 stands for the point on the concentration scale where inhibition reaches its midpoint. As to `C=C1C(=O)[C@]23[C@H](OC(=O)CCC(=O)OCCCOc4ccc(-c5cc(=S)ss5)cc4)[C@H]1CC[C@H]2[C@@]12CO[C@@]3(O)[C@@H](O)[C@@H]1C(C)(C)CCC2=O`, the IC50 in the data set with HCT-116 was 14 µM; in the data set with B16, greater than 50 µM; in the data set on L02 it was greater than 50 µM; with K562, 7.12 µM; in the data set with MCF7 it was 19.5 µM; in the data set with HepG2, 5.01 µM. Moreover, the IC50 in data set [1] was greater than 50 µM.

As to `C=C1C(=O)[C@]23[C@H](OC(=O)CCCC(=O)OCCCCCCOc4ccc(-c5cc(=S)ss5)cc4)[C@H]1CC[C@H]2[C@@]12CO[C@@]3(O)[C@@H](O)[C@@H]1C(C)(C)CCC2=O`, the IC50 was greater than 50 µM with HCT-116; greater than 50 µM with B16; greater than 50 µM with L02; 8.89 µM in the data set on K562; greater than 50 µM in the data set on MCF7; 9.33 µM with HepG2. In addition, the IC50 in data set [1] was greater than 50 µM.

Take `C=C1C(=O)[C@]23[C@H](OC(=O)CCC(=O)OCCOc4ccc(-c5cc(=S)ss5)cc4)[C@H]1CC[C@H]2[C@@]12CO[C@@]3(O)[C@@H](O)[C@@H]1C(C)(C)CC[C@@H]2OC(C)=O`: the IC50 in the data set with HCT-116 was 36.9 µM; with B16, greater than 50 µM; in the data set with L02 it was 29.9 µM; with K562 it was 2.85 µM; in the data set on MCF7, 24.7 µM; with HepG2, 5.89 µM. Further, the IC50 in data set [1] was greater than 50 µM.

For the compound `C=C1C(=O)[C@]23[C@H](OC(=O)CCCC(=O)OCCOc4ccc(-c5cc(=S)ss5)cc4)[C@H]1CC[C@H]2[C@@]12CO[C@@]3(O)[C@@H](O)[C@@H]1C(C)(C)CC[C@@H]2O`, the IC50 in the data set on HCT-116 is 38.4 µM; in the data set with B16 it was greater than 50 µM; in the data set with L02, 39.1 µM; in the data set on K562, 4.89 µM; in the data set on MCF7, 18.3 µM; with HepG2, 6.6 µM. In data set [1], the IC50 was greater than 50 µM.

`C=C1C(=O)[C@]23[C@H](OC(=O)CCCC(=O)OCCCCCCO[C@H]4CCC(C)(C)[C@H]5[C@H](O)[C@]6(O)OC[C@@]45[C@@H]4CC[C@H]5C(=C)C(=O)[C@]46[C@@H]5OC(=O)CCCC(=O)OCCCCCCOc4ccc(-c5cc(=S)ss5)cc4)[C@H]1CC[C@H]2[C@@]12CO[C@@]3(O)[C@@H](O)[C@@H]1C(C)(C)CC[C@@H]2O`: the IC50 with HCT-116 is greater than 50 µM; in the data set with B16, greater than 50 µM; with L02, greater than 50 µM; in the data set with K562, 13.5 µM; in the data set on MCF7, greater than 50 µM; in the data set with HepG2, 10.1 µM. Further, in data set [1], the IC50 was greater than 50 µM. The Drug metabolism in data set [2] turned out to be 15 µM.

As for `C=C1C(=O)[C@]23[C@H](OC(=O)CCC(=O)OCCCCCCOc4ccc(-c5cc(=S)ss5)cc4)[C@H]1CC[C@H]2[C@@]12CO[C@@]3(O)[C@@H](O)[C@@H]1C(C)(C)CCC2=O`, the IC50 in the data set with HCT-116 is greater than 50 µM; in the data set on B16 it was greater than 50 µM; with L02, greater than 50 µM; in the data set with K562, 5.87 µM; with MCF7, 34.8 µM; in the data set with HepG2, 10.5 µM. Also, the IC50 in data set [1] was greater than 50 µM.

For the compound `C=C1C(=O)[C@]23[C@H](OC(=O)CCCC(=O)OCCOc4ccc(-c5cc(=S)ss5)cc4)[C@H]1CC[C@H]2[C@@]12CO[C@@]3(O)[C@@H](O)[C@@H]1C(C)(C)CCC2=O`, the IC50 in the data set on HCT-116 was 34.9 µM; with B16 it was greater than 50 µM; in the data set with L02, 42.2 µM; in the data set with K562, 5.75 µM; in the data set with MCF7 it was 27.5 µM; with HepG2, 7.65 µM. In addition, the IC50 in data set [1] was greater than 50 µM.

For the compound `C=C1C(=O)[C@]23[C@H](OC(=O)CCCC(=O)OCCOc4ccc(-c5cc(=S)ss5)cc4)[C@H]1CC[C@H]2[C@@]12CO[C@@]3(O)[C@@H](O)[C@@H]1C(C)(C)CC[C@@H]2OC(C)=O`, the IC50 was greater than 50 µM with HCT-116; 11.1 µM in the data set with B16; 26.8 µM in the data set on L02; 1.86 µM in the data set on K562; greater than 50 µM in the data set with MCF7; 4.78 µM with HepG2. Further, the IC50 in data set [1] is greater than 50 µM.

For the compound `C=C1C(=O)[C@]23[C@H](OC(=O)CCCC(=O)OCCCCCCOc4ccc(-c5cc(=S)ss5)cc4)[C@H]1CC[C@H]2[C@@]12CO[C@@]3(O)[C@@H](O)[C@@H]1C(C)(C)CC[C@@H]2OC(C)=O`, the IC50 is greater than 50 µM with HCT-116; greater than 50 µM in the data set on B16; greater than 50 µM in the data set on L02; 13.9 µM in the data set on K562; greater than 50 µM in the data set with MCF7; 15.6 µM in the data set on HepG2. In addition, the IC50 in data set [1] was greater than 50 µM.

Consider `C=C1C(=O)[C@]23[C@H](OC(=O)CCCC(=O)OCCCOc4ccc(-c5cc(=S)ss5)cc4)[C@H]1CC[C@H]2[C@@]12CO[C@@]3(O)[C@@H](O)[C@@H]1C(C)(C)CCC2=O`, for which the IC50 was 23.7 µM in the data set with HCT-116; 39.9 µM in the data set with B16; 27.2 µM in the data set on L02; 3.59 µM in the data set on K562; 12.5 µM in the data set with MCF7; 2.58 µM in the data set with HepG2. Besides, the IC50 in data set [1] is greater than 50 µM.

As to `C=C1C(=O)[C@]23[C@H](O)[C@H]1CC[C@H]2[C@@]12CO[C@@]3(O)[C@@H](O)[C@@H]1C(C)(C)CC[C@@H]2OC(C)=O` [LASIOKAURIN], the IC50 in the data set on HCT-116 is 13.5 µM; in the data set with B16 it was 32.6 µM; with L02, 25.4 µM; in the data set on K562, 5.21 µM; in the data set with MCF7, 19.8 µM; in the data set with HepG2 it was 11.9 µM. The IC50 in data set [1] was greater than 50 µM.

Consider `O=c1[nH]cc(F)c(=O)[nH]1` [FLUOROURACIL], for which the IC50 with B16 was 12.6 µM; with L02, greater than 50 µM; in the data set on MCF7, 26.7 µM; in the data set with HepG2 it was 32.6 µM; in data set [1], greater than 50 µM.

For `C=C1C(=O)[C@]23[C@H](OC(=O)CCC(=O)OCCOc4ccc(-c5cc(=S)ss5)cc4)[C@H]1CC[C@H]2[C@@]12CO[C@@]3(O)[C@@H](O)[C@@H]1C(C)(C)CC[C@@H]2O`, the IC50 is 42.6 µM in the data set on HCT-116; greater than 50 µM in the data set on B16; 34 µM in the data set with L02; 4.57 µM in the data set with K562; 17.9 µM in the data set on MCF7; 5.36 µM in the data set on HepG2. In data set [1], the 50% inhibitory concentration (IC50) was greater than 50 µM. For the same compound, in data set [2], the Drug metabolism was found to be 15 µM.

For the compound `C=C1C(=O)[C@]23[C@H](OC(=O)CCCC(=O)OCCCOc4ccc(-c5cc(=S)ss5)cc4)[C@H]1CC[C@H]2[C@@]12CO[C@@]3(O)[C@@H](O)[C@@H]1C(C)(C)CC[C@@H]2O`, the IC50 in the data set with B16 is greater than 50 µM; in the data set with L02, 40.9 µM; with K562, 4.19 µM; in the data set with MCF7, 16.6 µM; in the data set with HepG2, 5.93 µM; in data set [1] it was greater than 50 µM. For the same compound, the Drug metabolism in data set [2] came out at 15 µM.

For `C=C1C(=O)[C@]23[C@H](OC(=O)CCC(=O)OCCCOc4ccc(-c5cc(=S)ss5)cc4)[C@H]1CC[C@H]2[C@@]12CO[C@@]3(O)[C@@H](O)[C@@H]1C(C)(C)CC[C@@H]2OC(C)=O`, the IC50 with HCT-116 stood at 22.1 µM; with B16, 16.4 µM; with L02 it was 22.3 µM; in the data set with K562, 2.44 µM; in the data set with MCF7, 20.8 µM; with HepG2 it was 6.3 µM. Also, the IC50 in data set [1] is greater than 50 µM.

For the compound `C=C1C(=O)[C@]23[C@H](OC(=O)CCC(=O)OCCCOc4ccc(-c5cc(=S)ss5)cc4)[C@H]1CC[C@H]2[C@@]12CO[C@@]3(O)[C@@H](O)[C@@H]1C(C)(C)CC[C@@H]2O`, the IC50 was found to be 27.5 µM with HCT-116; 27.5 µM with B16; 26.5 µM in the data set with L02; 2.17 µM in the data set with K562; 14.7 µM in the data set on MCF7; 4.45 µM with HepG2. In addition, in data set [1], the IC50 was greater than 50 µM. The Drug metabolism in data set [2] worked out at 15 µM.

On to `C=C1C(=O)[C@]23[C@H](OC(=O)CCCC(=O)OCCCOc4ccc(-c5cc(=S)ss5)cc4)[C@H]1CC[C@H]2[C@@]12CO[C@@]3(O)[C@@H](O)[C@@H]1C(C)(C)CC[C@@H]2OC(C)=O`, for which the IC50 was 37.5 µM in the data set on HCT-116; greater than 50 µM with B16; 33.5 µM with L02; 5.93 µM in the data set on K562; 15.8 µM with MCF7; 3.57 µM in the data set on HepG2. Moreover, in data set [1], the IC50 is greater than 50 µM.

Regarding `C=C1C(=O)[C@]23[C@H](OC(=O)CCC(=O)OCCOc4ccc(-c5cc(=S)ss5)cc4)[C@H]1CC[C@H]2[C@@]12CO[C@@]3(O)[C@@H](O)[C@@H]1C(C)(C)CCC2=O`, the concentration for half-maximal inhibition (IC50) was greater than 50 µM with HCT-116; greater than 50 µM with B16; 39.6 µM in the data set with L02; 8.79 µM in the data set on K562; 25.4 µM in the data set with MCF7; 7.52 µM in the data set on HepG2. For the same compound, the IC50 in data set [1] is greater than 50 µM.

`Oc1ccc(-c2cc(=S)ss2)cc1`: the IC50 with HCT-116, in the data set on B16, in the data set on L02, with K562, in the data set on MCF7 and in the data set on HepG2 was greater than 50 µM in each case. The IC50 in data set [1] was greater than 50 µM.

As for `C=C1C(=O)[C@]23[C@H](O)[C@H]1CC[C@H]2[C@@]12CO[C@@]3(O)[C@@H](O)[C@@H]1C(C)(C)CCC2=O`, the IC50 in the data set on HCT-116 is 10.7 µM; with B16, 25.5 µM; in the data set on L02, 28.5 µM; with K562 it was 4.17 µM; with MCF7, 15.4 µM; in the data set with HepG2, 10.5 µM. In addition, the IC50 in data set [1] is greater than 50 µM.
